Assay: Inhibitory activity against yeast aldehyde dehydrogenase (AIDH)

SMILES | IC50 [µM]
CON(c1ccccc1)S(=O)(=O)c1ccccc1 [N-Methoxy-N-phenyl-benzenesulfonamide] | > 1000
CCOC(=O)ON(c1ccccc1)S(=O)(=O)c1ccccc1 [N-[(ethoxycarbonyl)oxy]-N-phenylbenzenesulfonamide] | 64.3
CC(=O)ON(c1ccccc1)S(=O)(=O)c1ccccc1 [N-Acetoxy-N-phenyl-benzenesulfonamide] | 36
CCOC(=O)ON(C(=O)OCC)S(C)(=O)=O [ethyl (ethoxycarbonyl)oxy(methylsulfonyl)carbamate] | 35.6
COC(=O)ON(c1ccccc1)S(=O)(=O)c1ccccc1 [N-[(methoxycarbonyl)oxy]-N-phenylbenzenesulfonamide] | 38.3
COC(=O)ON(C(=O)OC)S(C)(=O)=O [methyl (methoxycarbonyl)oxy(methylsulfonyl)carbamate] | 20.9
O=Nc1ccccc1 [NOB] | 2.5
CC(=O)ON(C(C)=O)S(C)(=O)=O [N-Acetoxy-N-acetyl-methanesulfonamide] | 1000

From BindingDB's records for doi:10.1021/jm980200+ (St. Cloud State University, 1998)
